Test results published in patent US11632953B2, “Method for controlling hematophagous or sap-feeding arthropods” (Board of Supervisors of Louisiana State University and …, priority 2016, dated 2023).

Experiments:
[1] = system: honey bees (Apis mellifera); assay: acute topical toxicity in adult honey bees; type: in vivo; settings: 48 h, VU041 1 mg/bee (~10 μg/mg), bifenthrin 0.1 μg/bee
Experimental: Frames of late-stage honeybee (A. mellifera) pupae were taken from four colonies at The Ohio State University Honey Bee Lab in Wooster, Ohio, and maintained in a dark humid incubator at 34° C. (Darwin Chambers Co., St. Louis, Mo., model H024) until adult bees emerged. New adults were brushed from frames daily, placed in wooden screen cages (21×14×12 cm), and provided with 1:1 (w/w) sucrose in water.
Acute toxicity experiments in adult bees were performed as follows: Twenty-four hours after emergence, adult honey bees in cages were anaesthetized with carbon dioxide, divided into groups of approximately 20 bees each, and placed in plastic-coated paper cups (177 cm^3; UNIQ Paper Yogurt Cup, Frozen Dessert Supplies, Gilbert, Ariz.) covered with cotton cheesecloth. […] As a positive control, some bees were treated with 3 μl of bifenthrin (0.1 μg/μl). Negative control bees were treated with 3 μl of solvent. Applications were made using a 20 μl micropipette (Fisherbrand Finnpipette F2, Fisher Scientific, Pittsburgh, Pa.) with a disposable plastic tip. […] Toxicity to honey bees was recorded at 48 h, rather than the 24 h used for mosquitoes, to allow for the possibility of delayed toxicity due to the larger body size of the bee. Bees showing no movement 48 h after treatment were scored as dead.

hKir2.1 = hKir2.1 (Homo sapiens (Human), UniProt P63252); assay: thallium (Tl+) flux assay; type: cell-based; settings: SAR libraries; read-out: hKir2.1 IC50
AnKir1 [2] = target: T1, AnKir1 (Anopheles gambiae, UniProt A0A075M2J8); assay: thallium (Tl+) flux assay; type: cell-based; settings: SAR libraries; read-out: AnKir1 IC50
Experimental: The thallium flux assay is an in vitro method of measuring conductance through a potassium ion channel. Potassium channels are also permeable to thallium ions. The modulation of a K^+ channel will thus increase or decrease thallium ion flow through the channel and thus, alter the observed fluorescence of a thallium-specific indicator dye.
After 1 hr incubation at room temperature, the dye-loading solution was washed from the plates and replaced with 20 μL/well of assay buffer. The plates were transferred to a Hamamatsu Functional Drug Screening System 6000 (FDSS6000; Hamamatsu, Tokyo, Japan), where 20 μL/well of each of the test compounds in assay buffer was added and allowed to incubate with the cells for 20 min. After incubation, a baseline recording was collected at 1 Hz for 10 s (excitation 470±20 nm, emission 540±30 nm); a thallium stimulus buffer was then added (10 μL/well), and data were then collected for an additional 4 min. […] To ensure the small-molecule vehicle DMSO had no direct effect on AnKir1-dependent Tl^+ flux, the assay's tolerance to different doses of DMSO was evaluated. The robustness and reproducibility of the assay was determined by comparing Tl^+ flux through tetracycline-induced and tetracycline-free cells. The Z′ value was calculated as:
Z′=1−(3SDp+3SDn)/|meanp+meann| where SD is standard deviation, and p and n are control and uninduced flux values, respectively. To compare the effect of DMSO on AnKir1-mediated Tl^+ flux, a one-way ANOVA was performed with a Tukey's multiple comparison test. Prism software (GraphPad Software) was used to generate CRC from Tl^+ flux. Half-inhibition concentration (IC50) values were calculated from fits using a four parameter logistic equation.
Test compounds were transferred to daughter, 384-well polypropylene plates (Greiner Bio-One, Monroe, N.C.) with an Echo555 liquid handler (Labcyte, Sunnyvale, Calif.), and then diluted into assay buffer to generate a 2× stock in 0.6% DMSO (0.3% final). […] Concentration-response curves (CRCs) were generated by screening compounds at 3-fold dilution series (1 nM-30 μM).
Tl^+ flux data were analyzed using Excel (Microsoft Corp, Redmond, Wash.) with XLfit add-in (IDBS, Guildford, Surrey, UK), OriginPro (Origin Lab, Northampton, Mass.), and GraphPad Prism (GraphPad Software, San Diego, Calif., USA) software. Raw data were opened in Excel and each data point in a given trace was divided by the first data point from that trace (static ratio) followed by subtraction of data points from control traces generated with vehicle controls. The slope of the fluorescence increase beginning 5 s after Tl^+ addition and ending 15 s after Tl^+ addition was calculated.
To perform Tl+ flux assays, stably transfected T-Rex-HEK-293 cells expressing AnKir1 channels were cultured overnight in 384-well plates (20,000 cells/20 μL/well), black-walled, clear-bottomed BD Pure Coat amine-coated plates (BD, Bedford, Mass.) with a plating media containing DMEM, 10% dialyzed FBS and 1 μg/mL tetracycline. […] Following 1 hr incubation at room temperature, the dye-loading solution was washed from the plates and replaced with 20 μL/well of assay buffer.

An. gambiae [3] = settings: cited from earlier work; for Resistance Ratio (Akron compared to G3 strain): ED50 Akron/ED50 G3
[4] = system: isolated tick salivary gland; assay: ion secretion in saliva of the isolated tick salivary gland; design: species or system Amblyomma americanum
Aedes aegypti mosquitoes = assay: mosquito blood feeding with compound exposure; type: in vivo; settings: compound added to blood
From the text: Tolbutamide and glybenclamide are inhibitors of ATP-gated Kir channels.

[5] = system: isolated tick salivary gland; assay: fluid secretion (salivation) in the isolated tick salivary gland, modified Ramsay assay; design: species or system Amblyomma americanum; settings: for reduction of salivary output / saliva secretion compared to control / Effect on Salivation at 10 minutes (reduction): isolated tick salivary gland
AnKir1 [6] = target: T1, AnKir1; assay: whole-cell patch clamp electrophysiology; type: cell-based; settings: whole-cell patch clamp, HEK-293T cells
Experimental: Patch electrodes were pulled from silanized 1.5 mm outer diameter borosilicate microhematocrit tubes using a P-1000 Flaming/Brown micropipette puller (Sutter Instrument, Novato Calif., USA). Electrode resistance ranged from 2-4 MΩ. Whole-cell currents were recorded under voltage-clamp conditions using an Axopatch 200B amplifier (Molecular Devices, Sunnyvale, Calif.). Electrical connections to the amplifier used Ag/AgCl wires and 3 M KCl/agar bridges. Electrophysiological data were collected at 5 kHz and filtered at 1 kHz. Data acquisition and analysis were performed using pClamp 9.2 software (Axon Instruments).
Transiently transfected HEK-293T cells expressing AnKir1 were voltage-clamped in the whole-cell configuration of the patch clamp technique. The extracellular bath solution contained (in mM): 135 NaCl, 5 KCl, 2 CaCl2), 1 MgCl2, 5 glucose, 10 HEPES free acid, pH 7.4, 290 mOsm/kg H2O. The pipette solution contained (in mM): 135 KCl, 2 MgCl2, 1 EGTA, 10 HEPES free acid, 2 Na2ATP (Roche, Indianapolis, Ind.), pH 7.3, 275 mOsm. Cells were voltage clamped at −75 mV, stepped to −120 mV for 200 msec, and then ramped to 120 mV at a rate of 2.4 mV/msec. Concentration-response curves (CRCs) were constructed by measuring the effects of increasing doses of inhibitors on AnKir1 currents at −120 mV. All recordings were made at room temperature (20-23° C.).

An. gambiae [7] = assay: topical toxicity bioassay in adult female An. gambiae; type: in vivo, Anopheles gambiae; settings: 24 h
Experimental: Topical toxicity bioassays were performed on non-blood-fed adult female mosquitoes. The mosquitoes were chilled on ice for 1-3 minutes, during which 200 nL of compound (dissolved in 95% ethanol) was applied onto the abdomen of each insect with a handheld Hamilton® micro-applicator. […] […] The three resulting ED50 values were averaged. An ethanol-only treatment was included in each experiment as a negative control. Treated mosquitoes were transferred to small cages with access to 10% sucrose and held under rearing conditions for 24 h. Mortality was recorded at 24 h.

Aphis gossypii = assay: aphid feeding on treated cotton leaves, electrophenegraph technique; type: in vivo; settings: barium chloride at 300 micromolar
Experimental: FIGS. 14(A) and (B) depict measurements of aphid (Aphis gossypi) feeding on cotton leaves, as measured through the electrophenegraph technique; on control leaves and on leaves treated with the Kir inhibitor barium, respectively.
In aphids, a specific Kir channel blocker (barium chloride at 300 micromolar) was coated onto leaf tissue, and the feeding behavior of the adult aphid was analyzed through the classical electrophenegraph technique.

Drosophila melanogaster = assay: whole plant or invertebrate; settings: 100 μM
Experimental: A capillary feeding assay (CAFE) was used to quantify the volume of sucrose solution consumed over a period of time; it was performed essentially as described in W. W. Ja, G. B. Carvalho, E. M. Mak, N. N. de la Rosa, A. Y. Fang, J. C. Liong, T. Brummel, S. Benzer, Prandiology of Drosophila and the CAFE assay. Proceedings of the National Academy of Sciences of the United States of America 104, 8253-8256 (2007); published online EpubMay 15 (10.1073/pnas.0702726104). […] One adult fly was placed into a 2 mL glass vial with a screw lid that was pierced with a glass microcapillary tube having a truncated 200-0 pipette tip. The microcapillary tubes contained 5% (wt/vol) sucrose solution with a 5 μl mineral oil overlay to minimize evaporation. […] Concentrations of 100 μM dopamine and 100 μM fluphenazine were used to determine the influence of those agents on fly feeding. […] All dead flies were excluded from all time points of the study regardless of the time of death. Mean (n>25) values are shown in all figure panels, depicting total consumption.
Times spent feeding in Kir1 and GFP genetic knockdown studies were compared to control values for each day using one-way ANOVA with a Dunns multiple comparisons post-test. Statistical significance for all studies was P<0.05.

T1 sequence (A0A075M2J8 1-555): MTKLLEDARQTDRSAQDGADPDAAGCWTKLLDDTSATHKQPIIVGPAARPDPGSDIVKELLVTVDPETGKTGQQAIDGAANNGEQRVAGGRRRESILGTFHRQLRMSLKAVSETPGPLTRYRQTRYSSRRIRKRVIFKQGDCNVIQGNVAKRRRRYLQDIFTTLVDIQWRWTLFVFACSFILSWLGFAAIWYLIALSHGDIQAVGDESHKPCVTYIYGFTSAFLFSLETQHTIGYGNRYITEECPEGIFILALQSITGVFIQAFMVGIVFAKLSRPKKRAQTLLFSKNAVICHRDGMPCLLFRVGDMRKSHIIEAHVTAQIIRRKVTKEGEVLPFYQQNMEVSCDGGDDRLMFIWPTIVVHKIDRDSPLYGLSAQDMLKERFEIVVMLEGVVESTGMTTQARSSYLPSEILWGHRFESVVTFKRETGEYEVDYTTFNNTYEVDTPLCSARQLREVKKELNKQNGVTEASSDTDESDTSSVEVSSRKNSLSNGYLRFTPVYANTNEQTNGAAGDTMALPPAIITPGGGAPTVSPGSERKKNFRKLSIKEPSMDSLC
Sequence of hKir2.1 (P63252 whole entry): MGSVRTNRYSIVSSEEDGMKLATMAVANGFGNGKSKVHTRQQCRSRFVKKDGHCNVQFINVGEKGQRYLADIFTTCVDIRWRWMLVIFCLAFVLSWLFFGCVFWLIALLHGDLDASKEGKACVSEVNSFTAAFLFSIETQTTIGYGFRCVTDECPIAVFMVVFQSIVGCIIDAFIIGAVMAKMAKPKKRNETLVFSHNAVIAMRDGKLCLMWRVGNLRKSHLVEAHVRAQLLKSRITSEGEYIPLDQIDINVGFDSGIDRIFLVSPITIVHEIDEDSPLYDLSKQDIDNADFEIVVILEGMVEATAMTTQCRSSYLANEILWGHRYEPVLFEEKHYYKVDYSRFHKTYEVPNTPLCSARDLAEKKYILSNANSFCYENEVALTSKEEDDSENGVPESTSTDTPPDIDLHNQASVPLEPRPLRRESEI

In the case of Cc1c(COC(=O)[C@@H]2[C@H](/C=C(\Cl)C(F)(F)F)C2(C)C)cccc1-c1ccccc1 (racemic) [bifenthrin, reference compound], the “mortality of adult honey bees” value [1] is reported as 100%.
Work on O=C(Cn1nc(C(F)(F)F)c2c1CCCC2)N1CCCC(c2ccccc2)C1 (stereo not shown) [Compound 12] yielded an IC50 (hKir2.1) of over 30 µM and an IC50 (AnKir1 [2]) of 5.6 µM.
Molecule O=C(Cn1nc(C(F)(F)F)c2c1CCCC2)N1CCOc2ccccc21 [Compound 14] has an IC50 (AnKir1 [2]) of 4.6 µM.
O=C(CN1CCCc2ccccc21)N1CCCc2ccccc21 [Compound 6] gave an IC50 (AnKir1 [2]) of 8 µM.
In the case of CC1(C)C(C=C(Cl)Cl)C1C(=O)OCc1cccc(Oc2ccccc2)c1 (stereo not shown) [Permethrin], the “Resistance Ratio (Akron compared to G3 strain)” value (An. gambiae [3]) is listed as 33 fold, the “ED50, Akron Strain” value (An. gambiae [3]; topical, Akron strain, from reference 21) is listed as 0.001 µg/mg and the “ED50, G3 Strain” value (An. gambiae [3]; topical, G3 strain, from reference 21) is listed as 3e-07 µg/mg.
For O=C(NCCO[N+](=O)[O-])c1cccnc1 [nicorandil], the “cations (K+ and Na+) concentrations excreted from the salivary glands” value [4] was “significant reduction”.
For O=C(Cn1nc(C(F)(F)F)c2c1CCCC2)N1CCCC2CCCCC21 (stereo not shown) [Compound 9], the IC50 (hKir2.1) was over 30 µM and the IC50 (AnKir1 [2]) was 6.7 µM.
For CCCCNC(=O)NS(=O)(=O)c1ccc(C)cc1 [tolbutamide], the “reduction of total volume of blood consumed” value (Aedes aegypti mosquitoes) was 99%.
For CNCCC(Oc1ccc(C(F)(F)F)cc1)c1ccccc1 (stereo not shown) [fluoxetine], the “reduction of salivary output / saliva secretion compared to control” value [5] was 98%.
In the case of CC(C)(C)CNC(=C[N+](=O)[O-])Nc1ccncc1 [DRS-4], the “Effect on Salivation at 10 minutes (reduction)” value (shortened to “Effect … (reduction)”) [5] is reported as “Reduced ~83%”.
In the case of CC(NC(=NC#N)Nc1cccnc1)C(C)(C)C (stereo not shown) [DRS-3], the “Effect … (reduction)” value [5] is reported as “Reduced ~100%”.
For O=C(Cn1ncc2c1CCOC2)N1CCCc2ccccc21 [VU730], the IC50 (AnKir1 [6]) was 0.717 µM, the topical toxicity (An. gambiae [7]; adult females) was “ED50 similar to that for VU041” and the “ED50 (95% confidence limits), G3 Strain” value (An. gambiae [7]; topical, G3 strain, synergists 500 ng/insect four hours prior) was 2.4 (2.1-2.9) A μg/mg. For the same molecule, the IC50 (hKir2.1) was over 30 µM and the IC50 (AnKir1 [2]) was 2.4 µM.
With CC(NC(=S)Nc1ccncc1)C(C)(C)C (stereo not shown) [DRS-1] the “Effect … (reduction)” value [5] was “Reduced ~80%”.
In the case of CC1CC(C)CN(C(=O)Cn2nc(C(F)(F)F)c3c2CCCC3)C1 (stereo not shown) [Compound 13], the IC50 (hKir2.1) is reported as over 30 µM and the IC50 (AnKir1 [2]) is reported as 4.5 µM.
For CNC(=O)Oc1ccccc1OC(C)C [propoxur], the “Resistance Ratio (Akron compared to G3 strain)” value (An. gambiae [3]) is listed as 101 fold.
With [Ba+2].[Cl-].[Cl-] [barium chloride] the “feeding phases (egestion, salivation, ingestion)” value (Aphis gossypii) was “inability of treated aphids to salivate”, the transepithelial fluid secretion ([5]; control 270 nl/5 min, preliminary) was 141 nl/5 min and the “reduction of salivary output / saliva secretion compared to control” value [5] was “approximately 60%”. For the same molecule, the “K+ and Na+ ion secretion rates in salivary droplets” value [4] was “significantly reduced”.
For O=C1CCCc2c1ccn2CC(=O)N1CCCc2ccccc21 [Compound 4], the IC50 (hKir2.1) was over 30 µM and the IC50 (AnKir1 [2]) was 12.1 µM.
In the case of NCCc1ccc(O)c(O)c1 [Dopamine, reference compound], the “increase in sucrose consumption vs control” value (from here on “increase”) (Drosophila melanogaster; 1 day PE) is reported as 1.7 fold, the “increase” value (Drosophila melanogaster; 2 days PE) is reported as 1.3 fold and the “increase” value (Drosophila melanogaster; 3 days PE) is reported as 1.2 fold. For the same molecule, the “increase” value (Drosophila melanogaster; 4 days PE) was 1.4 fold.
